Source: patent publication US5643912A, “Pyrazinoic acid esters as anti-mycobacterium avium agents” (The Research Foundation of State University of NY, priority 1996, dated 1997)
≈ marks a conversion by molar mass, not a printed value.

Tests used:
M. avium 101 = experiment: Broth dilution MIC vs M. avium 101; assay type: cell-based; conditions: Mycobacterium avium, 7H10 broth, pH 5.8
M. tuberculosis 102 = experiment: Broth dilution MIC vs M. tuberculosis 102; assay type: cell-based; conditions: Mycobacterium tuberculosis, 102, pH 5.8, M. tuberculosis 102, 7H10 broth, read-out: MIC
M. kansasii SWK = experiment: Broth dilution MIC vs M. kansasii SWK; assay type: cell-based; conditions: Mycobacterium kansasii, 7H10 broth, pH 5.8
M. tuberculosis BUR = experiment: Broth dilution MIC vs M. tuberculosis BUR; assay type: cell-based; conditions: Mycobacterium tuberculosis, M. tuberculosis BUR (footnote b), 7H10 broth, pH 5.8
M. avium LPR = experiment: Broth dilution MIC vs M. avium LPR; assay type: cell-based; conditions: Mycobacterium avium, M. avium LPR (footnote a), 7H10 broth, pH 5.8
[1] = in words; cited from earlier work
[2] = tested on: Mycobacterium (M.) tuberculosis; conditions: in words; cited from earlier work
M. avium = conditions: Heifets et al. 1986; cited from earlier work
[3] = tested on: M. bovis or other mycobacteria; conditions: in words; cited from earlier work

CCOCCOCCOC(=O)c1cnc(Cl)cn1 [Example 10]
MIC (M. avium 101): 64 µg/mL (≈ 233 µM)
MIC (M. tuberculosis 102): 1 µg/mL (≈ 3.64 µM)
MIC (M. kansasii SWK): 4 µg/mL (≈ 14.6 µM)

CC(C)COC(=O)c1cnccn1 [Example 49]
MIC (M. avium 101): 256 µg/mL (≈ 1420 µM)
MIC (M. tuberculosis 102): 2 µg/mL (≈ 11.1 µM)
MIC (M. kansasii SWK): 16 µg/mL (≈ 88.8 µM)

O=C(Oc1ccc(F)cc1)c1cnccn1 [Example 3]
MIC (M. avium 101): 128 µg/mL (≈ 587 µM)
MIC (M. tuberculosis 102): 32 µg/mL (≈ 147 µM)
MIC (M. kansasii SWK): 64 µg/mL (≈ 293 µM)

C=CCOC(=O)c1cnccn1 [Example 42]
MIC (M. kansasii SWK): 3 µg/mL (≈ 18.3 µM)
MIC (M. tuberculosis BUR): 6.3 µg/mL (≈ 38.4 µM)

O=C(Oc1c(Br)cc(Br)cc1Br)c1cnccn1 [Example 4]
MIC (M. avium 101): 128 µg/mL (≈ 293 µM)
MIC (M. tuberculosis 102): 32 µg/mL (≈ 73.2 µM)
MIC (M. kansasii SWK): 64 µg/mL (≈ 146 µM)

C=CCOC(=O)c1cnc(Cl)cn1 [Example 33]
MIC (M. avium 101): 64 µg/mL (≈ 322 µM)
MIC (M. tuberculosis 102): 1 µg/mL (≈ 5.04 µM)
MIC (M. kansasii SWK): < 1 µg/mL

CC(C)COC(=O)c1cnc(Cl)cn1 [Example 34]
MIC (M. avium 101): 64 µg/mL (≈ 298 µM)
MIC (M. tuberculosis 102): 2 µg/mL (≈ 9.32 µM)
MIC (M. kansasii SWK): < 1 µg/mL

CCCCCCCCCCOC(=O)c1cnc(F)cn1 [Example 27]
MIC (M. avium 101): 32 µg/mL (≈ 113 µM)
MIC (M. tuberculosis 102): 2 µg/mL (≈ 7.08 µM)
MIC (M. kansasii SWK): 1 µg/mL (≈ 3.54 µM)

CCCCCCC(CCCCCC)OC(=O)c1cnc(Cl)cn1 [Example 16]
MIC (M. avium 101): 16 µg/mL (≈ 46.9 µM)
MIC (M. tuberculosis 102): 0.25 µg/mL (≈ 0.733 µM)
MIC (M. kansasii SWK): 0.5 µg/mL (≈ 1.47 µM)

COCCOCCOC(=O)c1cnc(Cl)cn1 [Example 9]
MIC (M. avium 101): 64 µg/mL (≈ 246 µM)
MIC (M. tuberculosis 102): 2 µg/mL (≈ 7.67 µM)
MIC (M. kansasii SWK): 2 µg/mL (≈ 7.67 µM)

CCCOC(=O)c1cnccn1 [Example 43]
MIC (M. kansasii SWK): 3 µg/mL (≈ 18.1 µM)
MIC (M. tuberculosis BUR): 3 µg/mL (≈ 18.1 µM)

O=C(OCC(F)(F)F)c1cnccn1 [Example 41]
MIC (M. kansasii SWK): 100 µg/mL (≈ 485 µM)
MIC (M. tuberculosis BUR): 25 µg/mL (≈ 121 µM)

CCCCCCCCCCOC(=O)c1cnc(Cl)cn1 [Example 6]
MIC (M. avium 101): 32 µg/mL (≈ 107 µM)
MIC (M. tuberculosis 102): 0.5 µg/mL (≈ 1.67 µM)
MIC (M. kansasii SWK): 0.5 µg/mL (≈ 1.67 µM)

O=C(OCc1ccccc1)c1cnc(Cl)cn1 [Example 30]
MIC (M. avium 101): 8 µg/mL (≈ 32.2 µM)
MIC (M. tuberculosis 102): 1 µg/mL (≈ 4.02 µM)
MIC (M. kansasii SWK): 1 µg/mL (≈ 4.02 µM)

Cc1ccc(OC(=O)c2cnccn2)cc1 [Example 64]
MIC (M. tuberculosis 102): 100 µg/mL (≈ 467 µM)
MIC (M. kansasii SWK): 100 µg/mL (≈ 467 µM)

CCCCCCCCCCOC(=O)c1cnccn1 [Example 1]
MIC (M. avium 101): 32 µg/mL (≈ 121 µM)
MIC (M. tuberculosis 102): 0.5 µg/mL (≈ 1.89 µM)
MIC (M. kansasii SWK): 0.25 µg/mL (≈ 0.946 µM)

CCCCCC(C)(CCCC)OC(=O)c1cnc(Cl)cn1 (stereo not shown) [Example 40]
MIC (M. avium 101): > 256 µg/mL
MIC (M. tuberculosis 102): 4 µg/mL (≈ 12.8 µM)
MIC (M. kansasii SWK): 16 µg/mL (≈ 51.1 µM)

Cc1cc(C(C)(C)C)c(OC(=O)c2cnccn2)c(C(C)(C)C)c1 [Example 51]
MIC (M. avium 101): > 256 µg/mL
MIC (M. tuberculosis 102): 128 µg/mL (≈ 392 µM)
MIC (M. kansasii SWK): > 16 µg/mL

CC1CCC(C(C)C)C(OC(=O)c2cnccn2)C1 (stereo not shown) [Example 56]
MIC (M. tuberculosis 102): 2 µg/mL (≈ 7.62 µM)

COC(=O)c1cnc(I)cn1 [Example 39]
MIC (M. avium 101): 256 µg/mL (≈ 970 µM)
MIC (M. tuberculosis 102): 16 µg/mL (≈ 60.6 µM)
MIC (M. kansasii SWK): 8 µg/mL (≈ 30.3 µM)

CCCCCC(C)(CCC)OC(=O)c1cnc(Cl)cn1 (stereo not shown) [Example 44]
MIC (M. avium 101): > 256 µg/mL
MIC (M. tuberculosis 102): 4 µg/mL (≈ 13.4 µM)
MIC (M. kansasii SWK): 4 µg/mL (≈ 13.4 µM)

CCCCCCCCCOC(=O)c1cnc(Cl)cn1 [Example 20]
MIC (M. avium 101): 32 µg/mL (≈ 112 µM)
MIC (M. tuberculosis 102): < 0.03 µg/mL
MIC (M. kansasii SWK): < 0.13 µg/mL

CCCCCC(C)(CCCCC)OC(=O)c1cnc(Cl)cn1 [Example 45]
MIC (M. avium 101): > 64 µg/mL
MIC (M. tuberculosis 102): 8 µg/mL (≈ 24.5 µM)
MIC (M. kansasii SWK): 8 µg/mL (≈ 24.5 µM)

CCCCCCC(C)(CCCCCC)OC(=O)c1cnc(Cl)cn1 [Example 17]
MIC (M. avium LPR): 16 µg/mL (≈ 45.1 µM)
MIC (M. tuberculosis 102): 0.25 µg/mL (≈ 0.704 µM)
MIC (M. kansasii SWK): 2 µg/mL (≈ 5.64 µM)

C=CC(C)OC(=O)c1cnc(Cl)cn1 (stereo not shown) [Example 32]
MIC (M. avium 101): 64 µg/mL (≈ 301 µM)
MIC (M. tuberculosis 102): 2 µg/mL (≈ 9.41 µM)
MIC (M. kansasii SWK): < 1 µg/mL

CCCCCCOC(=O)c1cnc(F)cn1 [Example 28]
MIC (M. avium 101): 64 µg/mL (≈ 283 µM)
MIC (M. kansasii SWK): 8 µg/mL (≈ 35.4 µM)

CCCCCCCCCCCOC(=O)c1cnc(Cl)cn1 [Example 25]
MIC (M. avium 101): 16 µg/mL (≈ 51.1 µM)
MIC (M. tuberculosis 102): 0.25 µg/mL (≈ 0.799 µM)
MIC (M. kansasii SWK): 0.06 µg/mL (≈ 0.192 µM)

O=C(Oc1ccc(-c2ccccc2)cc1)c1cnccn1 [Example 67]
MIC (M. kansasii SWK): 25 µg/mL (≈ 90.5 µM)

CCCCCCC(C)OC(=O)c1cnc(F)cn1 (stereo not shown) [Example 29]
MIC (M. avium 101): 32 µg/mL (≈ 126 µM)
MIC (M. tuberculosis 102): 2 µg/mL (≈ 7.86 µM)
MIC (M. kansasii SWK): 0.03 µg/mL (≈ 0.118 µM)

CCCCOC(=O)c1cnc(Cl)cn1 [Example 31]
MIC (M. avium 101): 64 µg/mL (≈ 298 µM)
MIC (M. tuberculosis 102): 0.25 µg/mL (≈ 1.16 µM)
MIC (M. kansasii SWK): < 1 µg/mL

NC(=O)c1cnccn1 [pyrazinamide]
hepatotoxicity [1]: hepatotoxicity
activity against M. tuberculosis [2]: only active against Mycobacterium (M.) tuberculosis
activity against M. avium (M. avium): inactive
activity against M. bovis or other mycobacteria [3]: not active

C/C=C/COC(=O)c1cnccn1 [Example 54]
MIC (M. tuberculosis 102): 2 µg/mL (≈ 11.2 µM)

CCCCCCCCCC(C)(CCCCCCC)OC(=O)c1cnc(Cl)cn1 (stereo not shown) [Example 48]
MIC (M. avium 101): > 64 µg/mL
MIC (M. tuberculosis 102): 0.5 µg/mL (≈ 1.22 µM)
